Assay: Storage stability of the gel formulation containing calcipotriol and betamethasone dipropionate
Assay type: physicochemical
Settings: gel formulation of Example 1; for BDP Kvant.: content of BDP; for Calcipotri. Kvant.: content of calcipotriol, in µg/g
Method: To produce 1 kg of gel formulation, 30 g of hydrogenated castor oil was melted together with 749 g of heptamethylnonane at 85-90° C. and cooled with homogenisation to about 60° C. The mixture was then cooled to 25-30° C. with stirring. 643 mg of betamethasone dipropionate was suspended in 50 g of heptamethylnonane and added to the homogenised gel base. 52.2 mg of calcipotriol hydrate or 50 mg of calcipotriol was dissolved in 170 g polyoxypropylene-15-stearyl ether and added to the mixture of the other ingredients, and the formulation was homogenised to ensure a homogenous distribution of the active components. The resulting gel formulation was stable when stored at 40° C. for 3 months, indicating a shelf life of at least 2 years at room temperature.

Row | % FOS (40° C. 1 month) [%] | BDP Kvant. (40° C. 1 month) [mg/g] | % FOS (40° C. 3 months) [%] | BDP Kvant. (40° C. 3 months) [mg/g] | % FOS (Start 5°C./1 month) [%] | % Epi (40° C. 1 month) [%] | Calcipotri. Kvant. (40° C. 1 month) | % Epi (40° C. 3 months) [%] | Calcipotri. Kvant. (40° C. 3 months) | % Epi (Start 5°C./1 month) [%] | SMILES
1 | 0.91 | 0.634 | 1.02 | 0.642 | 0.23 |  |  |  |  |  | CCC(=O)OCC(=O)[C@@]1(OC(=O)CC)[C@@H](C)C[C@H]2[C@@H]3CCC4=CC(=O)C=C[C@]4(C)[C@@]3(F)[C@@H](O)C[C@@]21C [BDP, betamethasone dipropionate]
2 | 1.52 |  | 1.33 |  | 1.59 | 0.66 | 50.16 | 0.8 | 50.0 | 0.62 | C=C1/C(=C\C=C2/CCC[C@]3(C)[C@@H]([C@H](C)/C=C/[C@@H](O)C4CC4)CC[C@@H]23)C[C@@H](O)C[C@@H]1O [Calcipotri., calcipotriol]

Source: US20020111336A1, “Topical composition” (priority 2000, published 2002)
